Assay results from patent US8513230B2, “Nuclear transport modulators and uses thereof” (Karyopharm Therapeutics, Inc., priority 2010, dated 2013).

How the values were obtained:
[1] = tested on: MM.1S, MM.1R, Jurkat and HS-Sultan cells; experiment: Isobologram analysis of the interaction with Bortezomib; assay type: cell-based
Procedure: The MTT cell proliferation assay was used to study the cytotoxic properties of the compounds. The assay was performed according to the method described by Roche Molecular Biochemicals with minor modifications. The assay is based on the cleavage of the tetrazolium salt, MTT, in the presence of an electron-coupling reagent. The water-insoluble formazan salt produced must be solubilized in an additional step. Cells, grown in a 96-well tissue culture plate, are incubated with the MTT solution for approximately 4 hours. After this incubation period, a water-insoluble formazan dye is formed. After solubilization, the formazan dye is quantitated using a scanning multi-well spectrophotometer (ELISA reader). […] The cells were seeded at 1.5×10^4 cells in each well of 96-well plate in 200 μL of fresh culture medium and were allowed to attach for overnight. The stock solutions of the compounds were diluted in cell culture medium to obtain eight concentrations of each drug, ranging from 1 nM to 20 μM. After 72 h of treatment the medium was aspirated and the cells were washed once with sterile 1×PBS. […]
Tumor cells were assayed for viability in the absence or presence of drug/control treatments, and drug combination dose response studies were analyzed graphically by correlating the fraction of surviving cells with drug concentrations for each drug.r

[2] = tested on: Human myeloma cell lines (H929); experiment: Combination study with doxorubicin, apoptosis by anti-caspase-3 assay; assay type: cell-based; settings: H929 cells, compound 16 hrs then doxorubicin 2 umol/L for 4 h
Procedure: Combinations studies with doxorubicin. Human myeloma cell lines (H929) grown at 2×10^6 cells/mL (high density) were incubated with and without Example 1 for 16 h followed by doxorubicin (2 umol/L; Sigma) for 4 h and assayed for apoptosis by anti-caspase-3 assay (BD Pharmingen).

[3] = tested on: HCT-116 xenografts; experiment: HCT-116 xenograft growth and tolerability; assay type: in vivo
Procedure: FIG. 5 presents activity data for Example 1 (KPT-127) administered at 150 mg/kg QD×7. […] HCT-116 xenografts were grown to ˜150 mm^3 and low dose KPT-0127 administered. On day 9, when the tumors were ˜350 mm^3, KPT-127 dose was escalated to 150 mg/kg sc daily. Irinotecan was used as a control.

[4] = tested on: normal cells; experiment: Cytotoxicity assay (MTS), normal cells; assay type: cell-based; settings: 72 hours exposure
[5] = tested on: MM1.S xenografts; experiment: MM1.S xenograft growth; assay type: in vivo
Procedure: FIG. 4 presents activity data for Example 1 (KPT-0127) administered at 150 mg/kg QD×5. […] (A) MM1.S cells were grown as xenografts to 130 mm^3 (small) or (B) 1350 mm^3 (large) sizes and were treated with KPT-0127 SC or dexamethasone IP daily×5 and growth was assessed. Treatment of large xenografts is ongoing (data shown after 5 doses of KPT-0127).

[6] = tested on: panel of ~570 solid and hematologic cancer cell lines; experiment: Cytotoxicity assay (CellTiter 96 AQueous One Solution, MTS) in cancer cell line panel; assay type: cell-based; settings: 72 hours exposure, IC50 determined by MTS assay
Procedure: Cytotoxicity Assay (CellTiter 96® AQueous One Solution Cell Proliferation Assay) Cells were seeded into 96-well plates and compounds at the indicated concentrations were added to the cells after overnight incubation. Seventy two hrs later the proliferation assay was done in the following way: Twenty microliters of CellTiter 96® AQueous One Solution Reagent was added into each well. After 1 hour at 37° C. in a humidified, 5% CO2 atmosphere, the absorbance at 490 nm was recorded using an ELISA plate reader. Test compound was assayed in numerous cancer cell lines using the above assay protocol. Results are depicted in FIG. 3.

[7] = target: T1, Crm1 (Homo sapiens, UniProt O14980); experiment: Rev-GFP nuclear export inhibition assay (U2OS-RevGFP cells); assay type: cell-based; settings: ~1 hr incubation with compound, read-out: Rev Export (%)/[IC50] OR Cytotoxicity[EC50]
T1 construct: endogenous in cells; host or cells: U2OS-RevGFP cells
T1 sequence (O14980 whole entry): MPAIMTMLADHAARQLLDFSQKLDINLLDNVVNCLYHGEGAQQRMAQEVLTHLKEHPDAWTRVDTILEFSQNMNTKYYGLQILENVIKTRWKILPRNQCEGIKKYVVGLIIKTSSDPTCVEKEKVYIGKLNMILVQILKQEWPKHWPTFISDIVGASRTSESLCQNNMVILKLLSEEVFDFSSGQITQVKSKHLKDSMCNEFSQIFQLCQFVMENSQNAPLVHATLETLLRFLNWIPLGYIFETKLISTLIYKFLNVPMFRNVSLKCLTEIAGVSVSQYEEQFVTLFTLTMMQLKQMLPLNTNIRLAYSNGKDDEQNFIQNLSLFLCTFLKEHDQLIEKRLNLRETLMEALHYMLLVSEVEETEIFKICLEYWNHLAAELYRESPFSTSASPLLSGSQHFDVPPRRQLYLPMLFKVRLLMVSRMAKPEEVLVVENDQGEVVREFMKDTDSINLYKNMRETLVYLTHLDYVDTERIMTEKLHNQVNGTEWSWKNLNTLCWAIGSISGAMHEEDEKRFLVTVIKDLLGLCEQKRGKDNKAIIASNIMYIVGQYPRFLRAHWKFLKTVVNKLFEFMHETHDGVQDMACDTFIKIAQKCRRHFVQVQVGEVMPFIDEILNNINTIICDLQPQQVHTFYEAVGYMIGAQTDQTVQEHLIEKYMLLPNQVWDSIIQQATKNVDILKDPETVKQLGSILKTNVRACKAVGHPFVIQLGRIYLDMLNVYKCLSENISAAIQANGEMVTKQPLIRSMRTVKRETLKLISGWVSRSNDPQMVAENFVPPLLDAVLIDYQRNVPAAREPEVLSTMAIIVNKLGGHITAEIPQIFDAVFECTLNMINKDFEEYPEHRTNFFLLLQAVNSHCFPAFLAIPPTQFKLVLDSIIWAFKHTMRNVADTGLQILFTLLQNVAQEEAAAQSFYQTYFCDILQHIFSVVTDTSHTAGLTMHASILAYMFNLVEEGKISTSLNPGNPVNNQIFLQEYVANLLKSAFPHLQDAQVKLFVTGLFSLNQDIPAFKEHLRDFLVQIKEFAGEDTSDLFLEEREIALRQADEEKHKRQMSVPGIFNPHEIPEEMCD
Procedure: The evaluation of the affinity of compounds for the Crm1 protein was determined in the RevGFP assay.
Experimental protocol: Rev is a protein from human immunodeficiency virus type 1 (HIV-1) and contains a nuclear export signal (NES) in its C-terminal domain and a nuclear localization signal (NLS) in its N-terminal domain. Nuclear export of Rev protein is dependent on the classical NES/Crm1 pathway (Neville et al, 1997). Nuclear accumulation of Rev can be observed in cells treated with specific inhibitors of Crm1, such as LMB (Kau et al, 2003). In this assay, U2OS-RevGFP cells are seeded onto clear-bottom, black, 384-well plates the day before the experiment. Compounds are serially diluted 1:2 starting from 40 μM in a separate 384-well plate in DMEM, and then transferred onto cells. Cells are incubated with compound for ˜1 hr before fixation with 3.7% formaldehyde and nuclei staining with Hoechst 33258. The amount of GFP in cell nuclei will be measured and compound IC50s determined (Kau et al, 2003).

With `CC(C)OC(=O)/C=C\n1cnc(-c2cccc(Cl)c2)n1` [Example 1, (Z)-3-[3-(3-Chloro-phenyl)-[1,2,4]-triazol-1-yl]-acrylic acid isopropyl ester] the “interaction with Bortezomib (isobologram analysis)” value [1] was “synergistic interactions with Bortezomib”, the “sensitization to Topo II inhibitor Doxorubicin (apoptosis)” value [2] was “sensitizes non-Cyclin resistant Myeloma H929 cells to Topo II inhibitor Doxorubicin” and the “growth of moderate HCT-116 xenografts” value ([3]; 150 mg/kg QD×7, low dose from ~150 mm^3, escalated on day 9 (~350 mm^3) to 150 mg/kg sc daily) was “inhibits moderate HCT-116 xenografts”. The tolerability ([3]; 150 mg/kg sc daily) was “well tolerated”, the “clinical chemistries and CBCs” value ([3]; HCT-116 xenograft study) was “not significantly affected” and the “effect on normal cells” value [4] was “minimal effect on normal cells”. The “growth of small MM1.S xenografts” value ([5]; 150 mg/kg QD×5 SC, xenografts grown to 130 mm^3) was “inhibits growth”, the “growth of large MM1.S xenografts” value ([5]; 150 mg/kg SC, xenografts 1300 mm^3, data after 5 doses, treatment ongoing) was “inhibits growth” and the “cytotoxicity in hematologic and solid tumor cell lines” value [6] was “potent and selective cytotoxicity”.

Work on `CC(C)OC(=O)/C=C\n1cnc(-c2cc(C(F)(F)F)cc(S(C)(=O)=O)c2)n1` [Example 67, (Z)-isopropyl 3-(3-(3-(methylsulfonyl)-5-(trifluoromethyl)phenyl)-1H-1,2,4-triazol-1-yl)acrylate] yielded an IC50 [7] of under 1 µM.

With `CCOC(=O)/C=C\n1cnc(-c2cc(F)cc(Cl)c2)n1` [Example 82, 3-[3-(3-Chloro-5-fluoro-phenyl)-[1,2,4]triazol-1-yl]-acrylic acid ethyl ester] the IC50 [7] was 1 to 10 µM.

Compound `CC(C)N(C)C(=O)/C=C\c1n[nH]c(-c2cccc(Cl)c2)n1` [Example 95, 3-[5-(3-Chloro-phenyl)-1H-[1,2,4]triazol-3-yl]-N-isopropyl-N-methyl-acrylamide] has an IC50 [7] of over 10 µM.
